Converted amounts (≈) assume the structure as drawn. Counter-ions that a name gives are not always drawn. Values belong to the compound of their own block, whether it stands above or below them.
Columns and labels:
Sa399 (MRSA) = assay: MIC, broth microdilution (Example 3), Table 1; assay type: cell-based; conditions: Staphylococcus aureus, CAMHB, final 2% NaCl
Method: (§1) To prepare for MIC testing, individual colonies were isolated by streaking frozen glycerol material containing Staphylococcus or Pseudomonas spp. onto rich, non-selective, tryptic soy agar containing 5% sheep's blood (TSAB), and incubated at 37° C. for 18-24 hrs.
(§2) On the day of testing, primary cultures were started by scraping off 5-10 colonies from the TSAB plates. The material was suspended in ˜5 mL of cation adjusted Mueller Hinton Broth (CAMHB) in 14 mL culture tubes and incubated at 37° C. with aeration (200 rpm) for ˜2 hrs until the OD600 was ≧0.1.
(§3) Inoculum cultures were prepared by standardizing the primary cultures to OD600=0.1 and then adding 20 μL of the adjusted primary culture per 1 mL CAMHB for Pseudomonas and CAMHB plus 4% NaCl for MRSA so that the final inoculum density was ˜10^5 colony forming units per milliliter. Diluted inoculum cultures were used to inoculate 50 μL per well in 96 well broth microdilution assay plates. 50 μL of CAMHB that contained compound concentrations ranging from 64-0.06 μg/mL in two-fold dilutions was also added to the broth microdilution assay plates for a final volume 100 μL per well, therefore final culture OD600 was approximately 0.001 and the final NaCl concentration for the MRSA strain was 2%.
(§4) Plates were incubated for 18-20 hours at 37° C. with aeration (200 rpm). Following incubation, growth was confirmed visually placing plates over a viewing apparatus (stand with a mirror underneath) and then OD600 was measured using a SpectraMax 340PC384 plate reader (Molecular Devices, Sunnyvale, Calif.). Growth was defined as turbidity that could be detected with the naked eye or achieving minimum OD600 of 0.1. MIC values were defined as the lowest concentration producing no visible turbidity.

Pa44 (WT Pa) = assay: MIC, broth microdilution (Example 3), Table 1; assay type: cell-based; conditions: Pseudomonas aeruginosa, CAMHB
Method: as §1, §2, §3, §4

MRSA #712 [1] = assay: Thigh infection in neutropenic mice; assay type: in vivo, Staphylococcus aureus
Method: (§5) In vivo efficacy of (I) was evaluated against strains of MRSA, and ceftazidime-resistant Pa and Klebsiella pneumonia (Kpn) in mouse septicemia, thigh and lung infections. Septicemia: CD-1 mice received lethal bacterial inocula IP, followed by 2 doses of antibiotics SC at 1 and 6 hrs post-inoculation. Dose calculated to protect 50% of the mice (PD50) was derived based on probit analysis of percentage survival. Thigh and lung infections: Thighs or lungs of neutropenic mice were inoculated with MRSA or Pa. Two treatment doses were given SC at 1 and 6 hrs post-inoculation. Tissues were harvested at ˜24 hrs post-inoculation and bacterial burdens quantified.
(§6) II. Methods • A. Animals: Six week-old, specific pathogen free, female CD-1 mice purchased from Charles River Laboratories (Wilmington, Mass.) were used for all studies after acclimation in Cubist animal facility. All animal procedures were approved by the Cubist Institutional Animal Care and Use Committee. • B. Bacteria and In Vitro Susceptibility Testing: MRSA #712, Pseudomonas aeruginosa #2245 and #2545, and Klebsiella pneumoniae #573 are clinical isolates; Pseudomonas aeruginosa #44 is an ATCC strain (ATCC#27853). MIC was determined in MHB by standard CLSI microdilution. […] The survival of animals was recorded daily for 7 days. The antibiotic dose calculated to protect 50% of the mice (PD50) was derived based on probit analysis of percentage survival. • E. Mouse Thigh and Lung Infections: Mice were rendered neutropenic by two IP injections of cyclophosphamide 4 days (150 mg/kg) and 1 day (100 mg/kg) before bacterial inoculation. […] Tissue bacterial burdens were quantified by serial dilution and spiral plating of homogenates.

MRSA #712 [2] = assay: MIC in MHB by standard CLSI microdilution (Example 4); assay type: cell-based; conditions: Staphylococcus aureus, MRSA
Source text: (§7) II. Methods • A. Animals: Six week-old, specific pathogen free, female CD-1 mice purchased from Charles River Laboratories (Wilmington, Mass.) were used for all studies after acclimation in Cubist animal facility. All animal procedures were approved by the Cubist Institutional Animal Care and Use Committee. • B. Bacteria and In Vitro Susceptibility Testing: MRSA #712, Pseudomonas aeruginosa #2245 and #2545, and Klebsiella pneumoniae #573 are clinical isolates; Pseudomonas aeruginosa #44 is an ATCC strain (ATCC#27853). MIC was determined in MHB by standard CLSI microdilution. Comparator Antibiotics Used in Animal Studies: Vancomycin hydrochloride USP was purchased from Hospira (Lake Forest, Ill.); ceftazidime hydrate from Sigma; Primaxin (imipenem and cilastatin) from Merck; ceftaroline was synthesized at a CRO. • D. Mouse Septicemia: Mice received lethal inocula of bacteria in 6% hog gastric mucin intraperitoneally (IP), followed by two treatment doses of antibiotics via subcutaneous (SC) administration at 1 and 6 hrs post-inoculation. The survival of animals was recorded daily for 7 days. The antibiotic dose calculated to protect 50% of the mice (PD50) was derived based on probit analysis of percentage survival. • E. Mouse Thigh and Lung Infections: Mice were rendered neutropenic by two IP injections of cyclophosphamide 4 days (150 mg/kg) and 1 day (100 mg/kg) before bacterial inoculation. Thigh or lung infection was induced by an intramuscular injection of 0.2 mL or intranasal inoculation of 0.1 mL inoculum preparation from an overnight bacterial culture into left thigh or nares. Tissues from one group of mice receiving no treatment (No Rx) were harvested at 1 hr for determination of baseline of bacterial burden. The remaining mice received two treatment doses of vehicles or antibiotics given SC at 1 and 6 hrs post-inoculation. Tissues from the treated mice were harvested at ˜24 hrs post-inoculation. Tissue bacterial burdens were quantified by serial dilution and spiral plating of homogenates.

MRSA (n = 21) = assay: MIC90, expanded MIC panel (Table 4); assay type: cell-based; conditions: Staphylococcus aureus, MRSA, read-out: MIC90 MRSA (n = 21)
Method: (§8) II. […] MIC90 values were defined as the concentration required to inhibit growth of 90% of the strains tested. • C. SAR was performed using the following isolates: Sa399 (ATCC43300, MRSA), Sa1721 (NARSA NRS384, MRSA USA 300), Pa44 (ATCC27853), and 4 clinical isolates (Pa2241, Pa2086 (mucoid strain), Pa2694 and Pa2698). • D. The in vitro antibacterial activity of the compound of formula (I) was further evaluated in an expanded MRSA and Pa MIC panel (see Table 4 and FIG. 6).

MRSA #712 [3] = assay: Mouse septicemia (systemic infection), PD50; assay type: in vivo, Staphylococcus aureus; conditions: CD-1 mice, IP inoculum, 2 SC doses at 1 and 6 hrs, 7 day survival
Method: as §5
II. […] MIC was determined in MHB by standard CLSI microdilution. […] The survival of animals was recorded daily for 7 days. The antibiotic dose calculated to protect 50% of the mice (PD50) was derived based on probit analysis of percentage survival. • E. Mouse Thigh and Lung Infections: Mice were rendered neutropenic by two IP injections of cyclophosphamide 4 days (150 mg/kg) and 1 day (100 mg/kg) before bacterial inoculation. […] Tissue bacterial burdens were quantified by serial dilution and spiral plating of homogenates.
(§9) III. […] The dose that protected 50% of the mice (PD50) was calculated by probit analysis based on percentage of mice surviving for 7 days post-inoculation. • C. […]

[4] = tested on: Pseudomonas aeruginosa #44 (ATCC#27853); assay: Mouse septicemia (systemic infection), PD50; assay type: in vivo; conditions: Pa #44 (ATCC27853), CD-1 mice, IP inoculum, 2 SC doses at 1 and 6 hrs, 7 day survival
Method: as §5, §6, §9

Sa399 (ATCC43300, MRSA) = assay: MIC, broth microdilution (Example 5), Table 3; assay type: cell-based; conditions: Staphylococcus aureus
Method: as §8

Pa2694 = assay: MIC, broth microdilution (Example 5), Table 3; assay type: cell-based; conditions: Pseudomonas aeruginosa
Method: as §8

Pa2698 = assay: MIC, broth microdilution (Example 5), Table 3; assay type: cell-based; conditions: Pseudomonas aeruginosa
Method: as §8

Pa2241 = assay: MIC, broth microdilution (Example 5), Table 3; assay type: cell-based; conditions: Pseudomonas aeruginosa
Method: as §8

Pa2086 (mucoid strain) = assay: MIC, broth microdilution (Example 5), Table 3; assay type: cell-based; conditions: Pseudomonas aeruginosa
Method: as §8

Pa44 (ATCC27853) = assay: MIC, broth microdilution (Example 5), Table 3; assay type: cell-based; conditions: Pseudomonas aeruginosa
Method: as §8

[5] = tested on: Sa1721 (NARSA NRS384, MRSA USA 300); assay: MIC, broth microdilution (Example 5), Table 3; assay type: cell-based; conditions: Staphylococcus aureus
Method: as §8

Kpn #573 = assay: MIC in MHB by standard CLSI microdilution (Example 4); assay type: cell-based; conditions: Klebsiella pneumoniae
Source text: as §7

Pa #2545 = assay: as above; assay type: cell-based; conditions: Pseudomonas aeruginosa
Source text: as §7

Pa #44 (ATCC27853) = assay: as above; assay type: cell-based; conditions: Pseudomonas aeruginosa
Source text: as §7

[6] = tested on: Klebsiella pneumoniae #573; assay: Mouse septicemia (systemic infection), PD50; assay type: in vivo; conditions: Kpn #573; CD-1 mice, IP inoculum, 2 SC doses at 1 and 6 hrs, 7 day survival
Method: as §5
as §6, with “All animal procedures were approved by the Cubist Institutional Animal Care and Use Committee. • B. Bacteria and In Vitro Susceptibility Testing: MRSA #712, Pseudomonas aeruginosa #2245 and #2545, and Klebsiella pneumoniae #573 are clinical isolates; Pseudomonas aeruginosa #44 is an ATCC strain (ATCC#27853).” left out

[7] = tested on: Pseudomonas aeruginosa (n = 100); assay: MIC90, expanded MIC panel (Table 4); assay type: cell-based; conditions: 100 Pa strains
Method: as §8

[8] = tested on: ceftazidime-resistant Pseudomonas aeruginosa #2545; assay type: in vivo; conditions: Pa #2545; CD-1 mice, IP inoculum, 2 SC doses at 1 and 6 hrs, 7 day survival
Method: as §5
as §6, with “All animal procedures were approved by the Cubist Institutional Animal Care and Use Committee. • B. Bacteria and In Vitro Susceptibility Testing: MRSA #712, Pseudomonas aeruginosa #2245 and #2545, and Klebsiella pneumoniae #573 are clinical isolates; Pseudomonas aeruginosa #44 is an ATCC strain (ATCC#27853).” left out

[9] = tested on: ceftazidime-susceptible Pseudomonas aeruginosa #44 (ATCC#27853); assay: Lung infection in neutropenic mice; assay type: in vivo; conditions: Pa #44 lung infection
Method: as §5, §7

[10] = tested on: ceftazidime-susceptible Pseudomonas aeruginosa #2245; assay: Lung infection in neutropenic mice; assay type: in vivo; conditions: Pa #2245 lung infection, 3-log CFU reduction vs vehicle at 24 h
Method: as §5, §7

[11] = tested on: ceftazidime-resistant Pseudomonas aeruginosa #2545; assay: Lung infection in neutropenic mice; assay type: in vivo; conditions: Pa #2545 lung infection
Method: as §5, §7

MIC (Sa399 (MRSA)): 8 to 16 µg/mL (≈ 10.2 to 20.5 µM) | MIC (Pa44 (WT Pa)): > 16 µg/mL
SMILES: CO/N=C(\C(=O)N[C@@H]1C(=O)N2C(C(=O)[O-])=C(C[n+]3ccc(CNC(=O)c4cccc(CCNC(=O)C(F)(F)F)c4)cc3)CS[C@H]12)c1nc(N)sc1Cl [Compound 1-4]

MIC (Sa399 (MRSA)): ≤ 4 µg/mL | MIC (Pa44 (WT Pa)): > 16 µg/mL
SMILES: CO/N=C(\C(=O)N[C@@H]1C(=O)N2C(C(=O)[O-])=C(C[n+]3ccc(CNC(=O)c4ccccc4)cc3)CS[C@H]12)c1nc(N)sc1Cl [Compound 1-2]

Continued, compound first:

SMILES: CO/N=C(\C(=O)N[C@@H]1C(=O)N2C(C(=O)[O-])=C(C[n+]3cccc4c3CCC4)CS[C@H]12)c1csc(N)n1 [Cefpirome]
MIC (Sa399 (MRSA)): 8 to 16 µg/mL (≈ 15.5 to 31.1 µM) | MIC (Pa44 (WT Pa)): ≤ 4 µg/mL

SMILES: CN[C@H](CC(C)C)C(=O)N[C@H]1C(=O)N[C@@H](CC(N)=O)C(=O)N[C@H]2C(=O)N[C@H]3C(=O)N[C@H](C(=O)N[C@H](C(=O)O)c4cc(O)cc(O)c4-c4cc3ccc4O)[C@H](O)c3ccc(c(Cl)c3)Oc3cc2cc(c3O[C@@H]2O[C@H](CO)[C@@H](O)[C@H](O)[C@H]2O[C@H]2C[C@](C)(N)[C@H](O)[C@H](C)O2)Oc2ccc(cc2Cl)[C@H]1O [Vancomycin, Vancomycin hydrochloride]
Thigh (T) ED−2log (MRSA #712 [1]; MRSA #712 thigh infection, neutropenic mice, 2 SC doses at 1 and 6 hrs, 24 h, vs vehicle): >110 (T) mg/kg | reduction in bacterial CFU (MRSA #712 [1]; MRSA #712 thigh, 110 mg/kg SC): ~1.5 log | MIC (MRSA #712 [2]): 1 µg/mL | MIC90 (MRSA (n = 21)): 1 µg/mL | Septicemia PD50 (± SE) (MRSA #712 [3]): 2.0 ± 1.3 mg/kg

SMILES: CC(C)(O/N=C(\C(=O)N[C@@H]1C(=O)N2C(C(=O)[O-])=C(C[n+]3ccccc3)CS[C@H]12)c1csc(N)n1)C(=O)O [Ceftazidime]
MIC (Sa399 (MRSA)): > 16 µg/mL | MIC (Pa44 (WT Pa)): ≤ 4 µg/mL | Septicemia PD50 (± SE) [4]: 33.9 ± 7.4 mg/kg | Septicemia PD50 (± SE) ([4]; listed as ceftazidime): 33.9 ± 7.4 mg/kg | MIC (Sa399 (ATCC43300, MRSA)): 64 µg/mL (≈ 117 µM) | MIC (Pa2694): 8 µg/mL (≈ 14.6 µM) | MIC (Pa2698): 8 µg/mL (≈ 14.6 µM) | MIC (Pa2241): 2 µg/mL (≈ 3.66 µM) | MIC (Pa2086 (mucoid strain)): 2 µg/mL (≈ 3.66 µM) | MIC (Pa44 (ATCC27853)): 2 µg/mL (≈ 3.66 µM) | MIC [5]: > 64 µg/mL | MIC (Kpn #573): 256 µg/mL (≈ 468 µM) | MIC (Pa #2545): 32 to 64 µg/mL (≈ 58.5 to 117 µM) | MIC (Pa #44 (ATCC27853)): 1 µg/mL (≈ 1.83 µM) | Septicemia PD50 (± SE) [6]: 50.3 ± 8.4 mg/kg | MIC90 [7]: 8 µg/mL (≈ 14.6 µM) | Septicemia PD50 (± SE) [8]: >140.5 mg/kg | Lung (L) ED−2log ([9]; 2 SC doses at 1 and 6 hrs, 24 h, vs vehicle): 25.6 (L) mg/kg | ED−3 log ([9]; 3-log CFU reduction vs vehicle at 24 h): 50.4 mg/kg | ED−3 log [10]: 27.2 mg/kg | Lung (L) ED−2log ([11]; neutropenic mice, 2 SC doses at 1 and 6 hrs, 24 h, vs vehicle): >144.5 (L) mg/kg | impact on the bacterial burden in the lung ([11]; up to 144.5 mg/kg): minimal impact

Reference: patent US8809314B1, “Cephalosporin compound” (Cubist Pharmaceuticals, Inc., priority 2012, dated 2014)
